In article PMC7335108, “Butyrate producing colonic Clostridiales metabolise human milk oligosaccharides and cross feed on mucin via conserved pathways” (Nature Communications, 2020):
Where “and” joins values, the source holds several entries; their conditions need not be identical. Equal values may be shown once.

B1: ErLnb136I, N-terminal domain of the GH136 lacto-N-biosidase ErLnb136 from Eubacterium ramulus (domain or fragment, Eubacterium ramulus DSM 15684, UniProt U2PDT9 7-224, looked up)
chain: NQQEIYAAYRVANLLGVYEDCSPNGFYQRWKQKNAFMKAQAEEFGIGSTDHFIDDVERIVDQRRAETEWKNADAWKNGTAAFGARYLTPEMYLDYELKSIQLAFATYKGELVGNHKCHVYTEDEKRAFYDANQDLFTRYHGDLFSYEEVDLIIEKWLKVQEYQDIIESVVANTHLNETTVNEISAQDVSDEKSDNAVRWITEFEKIWNQMQEEKRLRE
modifications: selenomethionine in the SeMet-labelled crystal (PDB 6KQS)
notes: N-terminal domain (AA 7-224, eight alpha-helices, new fold) of ErLnb136, product of HMPREF0373_02965 of Eubacterium ramulus DSM 15684; residues 180-199 are disordered in the structure; In the crystal this domain is on ONE natural polypeptide with m4 (whole ErLnb136, cloned in pETM11 with a cleavable N- or C-terminal His6 tag); The linker 225-241 is disordered; also called GH136I domain; source: …

Tests used:
RhLNBBP [1] = target: T1, RhLNBBP (Roseburia hominis, UniProt G2T0U7); test: isothermal titration calorimetry; format: binding; details: 10 mM sodium phosphate, pH 6.5, 25 °C
T1 construct: gene RHOM_04095; signal peptide removed, cleavable His6 tag, pETM11, expressed in E. coli

RhGLnbp112 = target: T2, RhGLnbp112 (Roseburia hominis, UniProt G2T0V2); test: phosphorolysis, HPAEC-PAD of Gal1P; specific activity only; format: biochemical; details: 50 mM sodium phosphate, 150 mM NaCl, 0.005% Triton X-100, pH 6.5, 37 °C, 2 mM substrate
T2 construct: gene RHOM_04120; cleavable His6 tag, pETM11, E. coli
T2 sequence (G2T0V2 entry or part of it): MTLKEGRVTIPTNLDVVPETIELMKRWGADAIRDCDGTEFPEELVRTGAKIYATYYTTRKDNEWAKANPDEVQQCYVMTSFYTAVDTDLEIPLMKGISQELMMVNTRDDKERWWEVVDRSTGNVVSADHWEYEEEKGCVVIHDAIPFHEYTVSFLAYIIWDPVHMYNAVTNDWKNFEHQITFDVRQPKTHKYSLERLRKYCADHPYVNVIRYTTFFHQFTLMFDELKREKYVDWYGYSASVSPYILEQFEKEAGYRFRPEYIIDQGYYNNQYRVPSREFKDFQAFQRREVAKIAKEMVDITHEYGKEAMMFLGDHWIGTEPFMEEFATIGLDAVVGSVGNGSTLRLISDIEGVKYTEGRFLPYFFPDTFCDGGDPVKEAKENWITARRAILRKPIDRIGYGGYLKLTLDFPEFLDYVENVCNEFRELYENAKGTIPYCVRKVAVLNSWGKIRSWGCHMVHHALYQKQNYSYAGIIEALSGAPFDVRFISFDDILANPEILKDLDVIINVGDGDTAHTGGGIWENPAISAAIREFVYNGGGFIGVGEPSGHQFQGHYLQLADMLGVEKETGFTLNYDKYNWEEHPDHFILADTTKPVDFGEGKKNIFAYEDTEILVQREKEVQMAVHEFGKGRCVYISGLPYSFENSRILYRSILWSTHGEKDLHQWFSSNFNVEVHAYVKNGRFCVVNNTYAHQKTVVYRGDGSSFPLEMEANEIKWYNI

RiGLnbp112 = target: T3, RiGLnbp112 (Roseburia inulinivorans, UniProt A0ACG1Y7L8); test: as above; format: biochemical; details: 50 mM sodium phosphate, 150 mM NaCl, 0.005% Triton X-100, pH 6.5, 37 °C, 2 mM substrate
T3 construct: gene gnpA; cleavable His6 tag, pETM11, E. coli
T3 sequence (A0ACG1Y7L8 entry or part of it): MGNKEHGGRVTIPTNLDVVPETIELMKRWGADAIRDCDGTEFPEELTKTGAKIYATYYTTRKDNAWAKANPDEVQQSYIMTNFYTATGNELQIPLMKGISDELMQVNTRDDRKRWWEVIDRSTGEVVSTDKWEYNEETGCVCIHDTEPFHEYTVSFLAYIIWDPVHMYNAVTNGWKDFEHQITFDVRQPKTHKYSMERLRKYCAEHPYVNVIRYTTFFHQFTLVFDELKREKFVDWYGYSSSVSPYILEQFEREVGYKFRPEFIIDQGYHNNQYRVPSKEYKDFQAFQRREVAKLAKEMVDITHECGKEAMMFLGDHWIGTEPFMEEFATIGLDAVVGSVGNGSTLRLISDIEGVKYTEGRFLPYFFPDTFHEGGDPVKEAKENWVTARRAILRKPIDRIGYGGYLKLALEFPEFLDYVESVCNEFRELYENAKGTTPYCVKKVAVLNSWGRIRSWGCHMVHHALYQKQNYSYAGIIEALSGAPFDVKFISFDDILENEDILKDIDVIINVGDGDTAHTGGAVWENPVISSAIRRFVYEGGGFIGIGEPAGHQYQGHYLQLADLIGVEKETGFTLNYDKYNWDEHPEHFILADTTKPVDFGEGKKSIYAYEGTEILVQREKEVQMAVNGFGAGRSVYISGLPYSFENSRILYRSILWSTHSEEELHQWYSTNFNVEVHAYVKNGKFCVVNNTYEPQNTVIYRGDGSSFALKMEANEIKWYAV

RhLNBBP [2] = target: T4, RhLNBBP (Roseburia hominis, UniProt G2T0U7); parameters: isothermal titration calorimetry, single-site binding model; details: binder; read-out: KD (μM) ITC
T4 construct: gene RHOM_04095; signal peptide removed, cleavable His6 tag, pETM11, expressed in E. coli
T4 sequence (G2T0U7 21-454): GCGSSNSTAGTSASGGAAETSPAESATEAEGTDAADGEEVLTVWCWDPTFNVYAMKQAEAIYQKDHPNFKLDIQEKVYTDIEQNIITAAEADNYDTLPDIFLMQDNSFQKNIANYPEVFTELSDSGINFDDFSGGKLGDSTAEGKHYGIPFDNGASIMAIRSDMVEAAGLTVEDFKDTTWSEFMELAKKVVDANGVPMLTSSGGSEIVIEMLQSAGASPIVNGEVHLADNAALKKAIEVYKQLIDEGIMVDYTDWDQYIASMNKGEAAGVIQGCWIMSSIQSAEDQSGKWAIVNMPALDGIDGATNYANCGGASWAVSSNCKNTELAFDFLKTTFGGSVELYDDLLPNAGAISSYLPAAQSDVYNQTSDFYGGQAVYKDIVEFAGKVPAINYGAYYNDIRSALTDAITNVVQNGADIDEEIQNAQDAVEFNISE
Method: Binding of LNT, LNB, GNB, LNnT, lactose and 2′FL to RhLNBBP was measured using a Microcal ITC200 calorimeter (GE Healthcare). Titrations were performed in duplicates at 25 °C with RhLNBBP (0.1 mM) in the sample cell and 1.5 mM ligand in 10 mM sodium phosphate buffer, pH 6.5 in the syringe. A first injection of 0.4 µL was followed by 19 injections of 2 µL ligand each, separated by 180 s. Heat of dilution was determined from buffer titrations and corrected data were analysed using MicroCal Origin software v7.0. To determine binding thermodynamics a non-linear single binding model was fitted to the normalized integrated binding isotherms.

RiLe^a/bBP [3] = target: T5, RiLe^a/bBP (Roseburia inulinivorans, UniProt A0ACG1Y794); parameters: surface plasmon resonance, steady state, one-site fit; details: binder; read-out: KD (µM) SPR
T5 construct: gene LK408_15410; signal peptide removed, cleavable His6 tag, pETM11, expressed in E. coli; amine-coupled to CM5 chip
T5 sequence (A0ACG1Y794 20-470): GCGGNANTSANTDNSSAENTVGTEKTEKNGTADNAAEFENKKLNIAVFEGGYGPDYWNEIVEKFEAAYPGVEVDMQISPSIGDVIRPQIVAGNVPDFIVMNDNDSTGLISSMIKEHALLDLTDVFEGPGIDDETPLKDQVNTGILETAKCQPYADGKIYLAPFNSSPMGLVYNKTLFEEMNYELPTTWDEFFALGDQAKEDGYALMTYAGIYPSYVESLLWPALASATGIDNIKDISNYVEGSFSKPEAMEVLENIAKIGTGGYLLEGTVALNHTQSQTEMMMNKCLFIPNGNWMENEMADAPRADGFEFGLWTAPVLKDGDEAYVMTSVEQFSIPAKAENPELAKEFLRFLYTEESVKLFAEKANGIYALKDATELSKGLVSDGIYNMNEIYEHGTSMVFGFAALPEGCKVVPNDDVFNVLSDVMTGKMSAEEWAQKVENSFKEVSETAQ
Text: Both SBPs recognized distinct HMOs and ligands from host-glycans (Fig. 4, Supplementary Tables 2 and 3, Supplementary Fig. 7). […] The loss of the fucosyl unit at the terminal reducing GlcNAc reduced the affinity of RiLe^a/bBP about 5-fold for blood group H antigen triose type I (H triose type I) relative to Le^b tetraose. The specificity of RiLe^a/bBP is highlighted by the lack of affinity for lacto-N-neotetroase (LNnT), blood group A antigen triose (A triose), lactose and 2′-fucosyllactose (2′-FL). […] An equimolar mixture of Le^b, Le^a and H-triose type I oligomers promoted the growth of R. inulinivorans to a similar final OD600 as glucose (Fig. 1b, c and Fig. 4a). The uptake profiles of these ligands reflected the preference of RiLe^a/bBP, consistent with uptake by the associated transporter (Fig. 4). This was also in accord with the utilization of larger fucosylated HMO structures observed during growth on purified HMOs from mother’s milk (Supplementary Fig. 2a–c).

ErLnb136 = target: T6, ErLnb136 (Eubacterium ramulus, UniProt U2PDT9); test: X-ray crystal structure; format: binding; details: SeMet-labelled protein, 1.4 Å; 25 mM LNB in cryoprotectant; active site
T6 construct: gene HMPREF0373_02965; single chain, domain I AA 7-224 and catalytic domain II AA 242-663; His6 tag, pETM11, E. coli; crystal SeMet-labelled
T6 sequence (U2PDT9 entry or part of it): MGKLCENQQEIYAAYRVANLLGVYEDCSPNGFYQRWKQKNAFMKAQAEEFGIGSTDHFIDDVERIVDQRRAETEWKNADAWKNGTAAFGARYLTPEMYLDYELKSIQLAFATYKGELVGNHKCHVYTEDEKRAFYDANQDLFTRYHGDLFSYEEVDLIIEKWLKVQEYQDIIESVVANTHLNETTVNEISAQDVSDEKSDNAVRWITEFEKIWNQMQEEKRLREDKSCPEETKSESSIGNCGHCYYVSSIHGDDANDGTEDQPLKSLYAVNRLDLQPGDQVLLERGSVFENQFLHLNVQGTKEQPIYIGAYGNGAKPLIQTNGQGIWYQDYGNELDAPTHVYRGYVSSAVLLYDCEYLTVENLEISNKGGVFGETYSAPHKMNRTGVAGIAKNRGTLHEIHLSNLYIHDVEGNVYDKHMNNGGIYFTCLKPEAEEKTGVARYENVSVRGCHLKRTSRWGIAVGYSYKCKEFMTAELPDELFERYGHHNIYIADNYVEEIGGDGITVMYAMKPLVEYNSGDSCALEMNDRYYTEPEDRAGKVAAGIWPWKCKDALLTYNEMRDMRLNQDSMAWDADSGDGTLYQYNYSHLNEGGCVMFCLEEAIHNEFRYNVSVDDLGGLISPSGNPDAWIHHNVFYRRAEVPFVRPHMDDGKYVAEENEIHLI

RiLe^a/bBP [4] = target: T7, RiLe^a/bBP (Roseburia inulinivorans, UniProt A0ACG1Y794); test: surface plasmon resonance, steady state, one-site fit; format: binding; details: 20 mM sodium phosphate, 150 mM NaCl, 0.005% P20, pH 6.5, 25 °C; protein immobilised on CM5 chip
T7 construct: gene LK408_15410; signal peptide removed, cleavable His6 tag, pETM11, expressed in E. coli; amine-coupled to CM5 chip

RiFuc29 = target: T8, RiFuc29 (Roseburia inulinivorans, UniProt A0ACG1Y7F2); test: product profile (TLC and/or MALDI-TOF MS); format: biochemical; details: 50 mM MES, 150 mM NaCl, 0.005% Triton X-100, pH 6.5, 37 °C, 16 h; alpha-(1->4)-L-fucosyl removed
T8 construct: gene LK408_15425; cleavable His6 tag, pETM11, E. coli; no signal peptide; the GH29 of the GH112/GH136 locus, not that of the GH98 locus
T8 sequence (A0ACG1Y7F2 entry or part of it): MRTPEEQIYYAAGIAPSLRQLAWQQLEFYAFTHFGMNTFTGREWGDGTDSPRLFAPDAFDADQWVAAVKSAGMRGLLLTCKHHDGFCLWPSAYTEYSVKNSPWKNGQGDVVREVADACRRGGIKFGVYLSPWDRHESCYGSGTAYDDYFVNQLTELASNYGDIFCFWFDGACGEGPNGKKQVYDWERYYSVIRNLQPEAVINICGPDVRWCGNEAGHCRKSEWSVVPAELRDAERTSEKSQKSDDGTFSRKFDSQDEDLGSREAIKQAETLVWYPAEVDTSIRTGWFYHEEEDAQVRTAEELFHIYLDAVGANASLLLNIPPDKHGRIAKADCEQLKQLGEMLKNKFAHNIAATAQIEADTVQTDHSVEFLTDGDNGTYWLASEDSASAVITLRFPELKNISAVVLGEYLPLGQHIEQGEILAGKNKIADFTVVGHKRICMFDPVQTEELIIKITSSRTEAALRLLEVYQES

[5] = target: T9, ErLnb136II, C-terminal catalytic beta-helix domain of the GH136 lacto-N-biosidase ErLnb136 from Eubacterium … (Eubacterium ramulus DSM 15684, UniProt U2PDT9 242-663, selenomethionine in the SeMet-labelled crystal (PDB 6KQS)); test: crystal structure; ErLnb136 (both domains on one chain) with LNB; SeMet-labelled 1.4 Å and native 2.0 Å; sitting-drop vapor diffusion at 20 °C; details: both partners purified
T9 construct: C-terminal catalytic domain (AA 242-663, beta-helix fold) of ErLnb136, product of HMPREF0373_02965 of Eubacterium ramulus DSM 15684; In the crystal this domain is on ONE natural polypeptide with m3 (whole ErLnb136, cloned in pETM11 with a cleavable N- or C-terminal His6 tag); also called GH136II domain; source: E. coli B834 (DE3), SeMet-labelled, and E. coli BL21 ΔlacZ (DE3)/pRARE2, native
T9 sequence (looked up): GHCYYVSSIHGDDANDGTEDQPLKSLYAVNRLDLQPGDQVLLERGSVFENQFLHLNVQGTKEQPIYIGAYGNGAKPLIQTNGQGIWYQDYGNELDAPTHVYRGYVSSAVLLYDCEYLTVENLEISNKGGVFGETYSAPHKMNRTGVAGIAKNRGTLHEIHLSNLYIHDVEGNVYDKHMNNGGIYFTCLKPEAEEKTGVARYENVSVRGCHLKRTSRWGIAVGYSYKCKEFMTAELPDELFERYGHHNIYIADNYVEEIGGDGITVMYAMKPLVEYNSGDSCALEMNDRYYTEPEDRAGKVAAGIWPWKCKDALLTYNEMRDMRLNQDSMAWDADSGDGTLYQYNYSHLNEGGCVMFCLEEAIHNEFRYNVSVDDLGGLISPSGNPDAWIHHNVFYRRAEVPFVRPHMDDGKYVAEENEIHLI

| Molecule | KD (RhLNBBP [1]) | phosphorolysis, HPAEC-PAD of Gal1P; specific activity only (RhGLnbp112) | phosphorolysis, HPAEC-PAD of Gal1P; specific activity only (RiGLnbp112) | Kd (RhLNBBP [2]) | Kd (RiLe^a/bBP [3]) | KD (RiLe^a/bBP [4]) | further results |
| --- | --- | --- | --- | --- | --- | --- | --- |
| CC(=O)N[C@H]1C(O)O[C@H](CO)[C@H](O)[C@@H]1O[C@@H]1O[C@H](CO)[C@H](O)[C@H](O)[C@H]1O (stereo partly drawn) [GNB] | shows preference to LNB followed by GNB and LNT | This enzyme has comparable specific activities for LNB and GNB | (RiGLnbp112) phosphorolyzes LNB and GNB equally efficiently | 10.9 µM and 11.1 µM | 10.8 µM and 10.2 µM |  |  |
| CC(=O)N[C@H]1C(O)O[C@H](CO)[C@@H](O)[C@@H]1O[C@@H]1O[C@H](CO)[C@H](O)[C@H](O)[C@H]1O (stereo partly drawn) [LNB] | shows preference to LNB followed by GNB and LNT | This enzyme has comparable specific activities for LNB and GNB | (RiGLnbp112) phosphorolyzes LNB and GNB equally efficiently | 2.64 µM and 3.12 µM | 6.63 µM and 6.91 µM |  | X-ray crystal structure (ErLnb136): The LNB molecule bound in the active site is recognized by ten potential hydrogen bonds |
| CC(=O)N[C@H]1[C@H](O[C@H]2[C@@H](O)[C@@H](CO)O[C@@H](O[C@H]3[C@H](O)[C@@H](O)C(O)O[C@@H]3CO)[C@@H]2O)O[C@H](CO)[C@@H](O)[C@@H]1O[C@@H]1O[C@H](CO)[C@H](O)[C@H](O)[C@H]1O (stereo partly drawn) [LNT] | shows preference to LNB followed by GNB and LNT |  |  | 11 µM and 9.71 µM |  |  |  |
| CC(=O)N[C@H]1C(O)O[C@H](CO)[C@@H](O[C@@H]2O[C@@H](C)C(O)C(O)[C@@H]2O)[C@@H]1O[C@@H]1O[C@H](CO)[C@H](O)[C@H](O)[C@H]1O (stereo partly drawn) [Le^a triose] |  |  |  |  |  | Lewis b (Le^b) tetraose and Lewis a (Le^a) triose were the preferred ligand | product profile (TLC and/or MALDI-TOF MS) (RiFuc29): complete defucosylation of putative products of RiGH136, Le^b tetraose, Le^a triose and H triose |
| CC(=O)N[C@H]1C(O)O[C@H](CO)[C@@H](O[C@@H]2O[C@@H](C)[C@@H](O)[C@@H](O)[C@@H]2O)[C@@H]1O[C@@H]1O[C@H](CO)[C@H](O)[C@H](O)[C@H]1O[C@@H]1O[C@@H](C)[C@@H](O)[C@@H](O)[C@@H]1O (stereo partly drawn) [Le^b tetraose] |  |  |  |  | 1.77 µM and 1.75 µM | Lewis b (Le^b) tetraose and Lewis a (Le^a) triose were the preferred ligand |  |
| B1 |  |  |  |  |  |  | binding result [5]: binds |
